The values that follow come from US20210268017A1, “MOLECULAR HYDROGEN-CONTAINING COMPOSITION FOR PREVENTION AND/OR IMPROVEMENT OF PNEUMONIA” (MiZ Company Limited, priority 2020, published 2021).

Data set [1] relates to interstitial pneumonia. As to conditions: patient; drip infusion 1 ppm hydrogen 250 ml plus hydrogen gas inhalation (6 to 7%, 120 ml/min) 30 to 60 minutes once weekly for 8 weeks. The method, then: A patient who was diagnosed as having interstitial pneumonia received a drip infusion of hydrogen (1 ppm hydrogen, 250 ml) and inhalation of hydrogen gas over 30 minutes to 60 minutes once weekly for 8 weeks. MHG-2000α manufactured by MiZ Company Limited (hydrogen gas concentration 6 to 7%, 120 ml/min) was used for inhalation of a hydrogen gas.

For data set [2] the following is noted: room temperature, normal pressure; also printed as 1.6 mg/L; cited from earlier work.
In data set [3] the test system is chronic bronchitis and obstructive lung bronchitis. As to conditions: mice; earlier study; cited from earlier work.

Consider `[HH]` [hydrogen, molecular hydrogen], for which, in data set [1], the “improvement of interstitial pneumonia, confirmed by disappearance of ground-glass opacity in the CT finding” value is “Significant improvement”. Further, in data set [2], the “concentration of hydrogen dissolved in water” value is listed as “approximately 1.6 ppm”. In addition, the “effect on chronic bronchitis and obstructive lung bronchitis” value in data set [3] was “improved chronic bronchitis and obstructive lung bronchitis”.
